Results taken from ChEMBL document CHEMBL5126521, “Analgesic Opioid Ligand Discovery Based on Nonmorphinan Scaffolds Derived from Natural Sources” (J Med Chem, 2022).
Square brackets hold non-standard residues; d marks the D form. Peptide text beside a SMILES is read from it. Sar = CNCC(=O)O

Legend:
Mu-type opioid receptor [1] = target: Mu-type opioid receptor (Bos taurus, UniProt P79350); assay: Displacement of [3H]DAMGO from calf thalamus membrane MOP by competitive binding assay; type: cell membranes
Mus musculus [2] = assay: Antinociceptive activity in mouse at 3.2 to 32 pmol IT or sc; type: functional; conditions: dose 3.2-32 pmol
[3] = Toxicity in mouse assessed as inhibition of gastrointestinal transit at 3.2 to 32 pmol IT or sc by charcoal meal test; type: organism-based; conditions: in vivo, other, dose 3.2-32 pmol
[4] = target: T1, Kappa-type opioid receptor (Mus musculus, UniProt P33534); assay: Displacement of [3H]U69593 from mouse brain membrane KOP by competitive binding assay; type: cell membranes
[5] = Displacement of [3H]DPDPE from calf frontal cortex membrane Delta-type opioid receptor by competitive binding assay; type: cell membranes, Bos taurus
Mu-type opioid receptor [6] = target: Mu-type opioid receptor (Mus musculus, UniProt P42866); assay: Antagonist activity at mouse vas deferns MOP; type: functional
Mu-type opioid receptor [7] = target: Mu-type opioid receptor (Rattus norvegicus, UniProt P33535); assay: Displacement of [3H]DAGO from rat brain MOP incubated for 90 mins by scintillation counter; type: tissue-based
Rattus norvegicus [8] = assay: Antinociceptive activity in rat at 9 to 120 nmol icv or sc; type: functional; conditions: dose 9-120 nmol
Mu-type opioid receptor [9] = target: T2, Mu-type opioid receptor (Cavia porcellus, UniProt P97266); assay: (§1) Antagonist activity at guinea pig ileum MOP; type: functional, tissue-based
Rattus norvegicus [10] = assay: Antinociceptive activity in rat administered iv; type: functional
Mus musculus [11] = organism: Mus musculus; assay: Antinociceptive activity in mouse; type: functional
[12] = target: Delta-type opioid receptor (Rattus norvegicus, UniProt P33533); assay: Displacement of [3H][DAla2]deltorphin-I from rat brain DOP incubated for 90 mins by scintillation counter; type: tissue-based
Rattus norvegicus [13] = assay: Antinociceptive activity in rat administered icv; type: functional
[14] = target: T3, Kappa-type opioid receptor (Cavia porcellus, UniProt P41144); assay: Displacement of [3H]U69593 from guinea pig brain KOP incubated for 90 mins by scintillation counter; type: tissue-based
[15] = Toxicity in rat assessed as inhibition of hypercapnic respiratory response at 9 to 120 nmol icv or sc; conditions: in vivo, icv_or_intrathecal, dose 9-120 nmol
Mus musculus [16] = assay: Antinociceptive activity in mouse administered IT; type: functional
Rattus norvegicus [17] = assay: Antinociceptive activity in rat administered sc; type: functional
[18] = target: Mu-type opioid receptor (Cavia porcellus) (UniProt P97266); assay: as §1; type: functional, tissue-based; conditions: filed as antagonist
Rattus norvegicus [19] = assay: Antinociceptive activity in rat administered IT; type: functional
Mus musculus [20] = assay: Antinociceptive activity in mouse administered po; type: functional
Rattus norvegicus [21] = organism: Rattus norvegicus; assay: Antinociceptive activity in rat; type: functional
[22] = Toxicity in rat assessed as inhibition of gastrointestinal transit at 100 to 300 pmol icv or IT by charcoal meal test; conditions: in vivo, icv_or_intrathecal, dose 100-300 pmol
[23] = target: T3, Kappa-type opioid receptor; assay: Displacement of [3H]U69593 from guinea pig cerebellum KOP by competitive binding assay; type: tissue-based
Mus musculus [24] = assay: Antinociceptive activity in po dosed mouse by hot plate assay; type: functional
Mus musculus [25] = assay: Antinociceptive activity in sc dosed mouse by hot plate assay; type: functional
[26] = target: T3, Kappa-type opioid receptor; assay: Displacement of [3H]U69593 from guinea pig brain membrane KOP incubated for 1 hr by scintillation counter analysis; type: cell membranes
Mus musculus [27] = assay: Antinociceptive activity in po dosed mouse by tail flick assay; type: functional
[28] = Toxicity in po dosed mouse assessed as antinociceptive activity tolerance by tail flick assay; type: organism-based; conditions: in vivo
Mus musculus [29] = assay: Antinociceptive activity in sc dosed mouse by tail flick assay; type: functional
Mus musculus [30] = assay: Antinociceptive activity in po dosed visceral pain mouse model; type: functional
[31] = Displacement of [3H]naltrindole from guinea pig brain membrane DOP incubated for 3 hr by scintillation counter analysis; type: cell membranes, Cavia porcellus
[32] = Toxicity in po dosed mouse assessed as antinociceptive activity tolerance by hot plate assay; type: organism-based; conditions: in vivo
Mus musculus [33] = assay: Antinociceptive activity in sc dosed mouse; type: functional
Mu-type opioid receptor [34] = target: T2, Mu-type opioid receptor; assay: Displacement of [3H]DAMGO from guinea pig brain membrane MOP incubated for 1 hr by scintillation counter analysis; type: cell membranes
Mus musculus [35] = assay: Antinociceptive activity in ip dosed mouse assessed as tail flick latency; type: functional
Mu-type opioid receptor [36] = target: Mu-type opioid receptor (Homo sapiens, UniProt P35372); assay: Agonist activity at human MOP stably expressed in CHO-K1 cells assessed as inhibition of forskolin-induced cAMP accumulation; type: functional, cell-based
[37] = target: T4, Kappa-type opioid receptor (Homo sapiens, UniProt P41145); assay: Agonist activity at KOP (unknown origin) assessed as inhibition of forskolin-induced cAMP accumulation; type: functional
[38] = target: T1, Kappa-type opioid receptor; assay: Displacement of [3H]U69593 from C57BL6/J mouse brain KOP; type: tissue-based
[39] = target: T1, Kappa-type opioid receptor; assay: Agonist activity at C57BL6/J mouse brain KOP by calcium mobilization assay; type: functional, tissue-based
[40] = target: T1, Kappa-type opioid receptor; assay: Agonist activity at C57BL6/J mouse brain KOP; type: functional, tissue-based
Mus musculus [41] = assay: Antinociceptive activity in mouse administered icv by tail pressure test; type: functional
Mus musculus [42] = assay: Antinociceptive activity in mouse administered IT by tail pressure test; type: functional
Rattus norvegicus [43] = assay: Antinociceptive activity in rat at 2.5 to 5 mg/kg, icv
Mus musculus [44] = organism: Mus musculus; assay: Antinociceptive activity in mouse by tail pressure test; type: functional; conditions: Mus musculus; read-out: ED50
Mus musculus [45] = assay: Antinociceptive activity in mouse assessed as tail-flick latency administered icv […]; type: functional
Mus musculus [46] = organism: Mus musculus; assay: Antinociceptive activity in mouse by hot plate test
Mus musculus [47] = assay: Antinociceptive activity in mouse administered icv; type: functional
Mus musculus [48] = assay: Antinociceptive activity in mouse administered sc by tail pressure test; type: functional
[49] = target: T5, Delta-type opioid receptor (Homo sapiens, UniProt P41143); assay: Inhibition of DOP (unknown origin)
[50] = target: T4, Kappa-type opioid receptor; assay: Agonist activity at KOP (unknown origin); type: functional
[51] = target: T5, Delta-type opioid receptor; assay: Binding affinity to DOP (unknown origin)

Cc1cc(O)cc(C)c1C[C@H](N)C(=O)N[C@H](CCCNC(=N)N)C(=O)N[C@@H](Cc1ccccc1)C(=O)N[C@@H](CCCCN)C(N)=O
Ki (Mu-type opioid receptor [1]): 0.14 nM | ED50 (Mus musculus [2]): 0.0655 mg/kg | ED50 [3]: 0.006 mg/kg | Ki [4]: 11.5 nM | Ki [5]: 116 nM

C[C@@H](NC(=O)[C@@H](N)Cc1ccc(O)cc1)C(=O)N[C@@H](Cc1ccccc1)C(=O)NCC(=O)N[C@@H](Cc1ccc(O)cc1)C(=O)N1CCC[C@H]1C(=O)N[C@@H](CCCCN)C(N)=O
IC50 (Mu-type opioid receptor [6]): 52 nM | Ki (Mu-type opioid receptor [7]): 0.09 nM | ED50 (Rattus norvegicus [8]): 21.5 µmol/kg | IC50 (Mu-type opioid receptor [9]): 1.7 nM | ED50 (Rattus norvegicus [10]): 0.06 µmol/kg | ED50 (Mus musculus [11]): 0.22 µmol/kg | Ki [12]: 1100 nM | ED50 (Rattus norvegicus [13]): 0.03 pmol | Ki [14]: 617 nM | Activity [15]: 45.9 µmol/kg

CN(CC(=O)O)C(=O)[C@H](Cc1ccccc1)NC(=O)[C@@H](CCCN=C(N)N)NC(=O)[C@@H](N)Cc1ccc(O)cc1 (H-Y[dR]F[Sar]-OH)
ED50 (Mus musculus [16]): 4.5 pmol | Ki (Mu-type opioid receptor [1]): 0.5 nM | ED50 (Rattus norvegicus [17]): 0.61 mg/kg | IC50 (Mu-type opioid receptor [9]): 6.9 nM | IC20 [18]: 21 nM | ED50 (Rattus norvegicus [19]): 18 pmol | ED50 (Rattus norvegicus [10]): 0.8 µmol/kg | ED50 (Mus musculus [20]): 26 µmol/kg | ED50 (Rattus norvegicus [21]): 4.1 pmol | ED50 [22]: 0.053 mg/kg | Ki [5]: 562 nM | Ki [23]: > 10000 nM

CC[C@@H]1CN2CC[C@@]34OCCO[C@@]3(Nc3ccc(F)c(OC)c34)[C@@H]2C[C@@H]1/C(=C\OC)C(=O)OC
ED50 (Mus musculus [24]): 3 mg/kg | ED50 (Mus musculus [25]): 0.7 mg/kg | Ki [26]: 18 nM | ED50 (Mus musculus [27]): 2.8 mg/kg | ED50 [28]: 11.1 mg/kg | ED50 (Mus musculus [29]): 0.6 mg/kg | ED50 (Mus musculus [30]): 0.6 mg/kg | Ki [31]: 350 nM | ED50 [32]: 1.3 mg/kg | ED50 (Mus musculus [33]): 0.1 mg/kg | Ki (Mu-type opioid receptor [34]): 7.3 nM

COC(=O)[C@@H]1C[C@H](OC(=O)c2ccc(CO)cc2)C(=O)[C@H]2[C@@]1(C)CC[C@H]1C(=O)O[C@H](c3ccoc3)C[C@]21C
ED50 (Mus musculus [35]): 2.35 mg/kg | EC50 (Mu-type opioid receptor [36]): 0.03 nM | EC50 [37]: > 10000 nM

CCC(=O)O[C@H]1C[C@@H](C(=O)OC)[C@]2(C)CC[C@H]3C(=O)O[C@H](c4ccoc4)C[C@]3(C)[C@H]2C1=O
Ki [38]: 32.6 nM | EC50 [39]: 102 nM | EC50 [40]: 17 nM

CN1CC[C@]23c4c5ccc(O)c4O[C@H]2[C@@H](O)C=C[C@H]3[C@H]1C5 [MORPHINE]
ED50 (Mus musculus [41]): 1.05 nmol | ED50 (Mus musculus [42]): 0.72 pmol | ED50 (Rattus norvegicus [10]): 1.6 µmol/kg | ED50 (Rattus norvegicus [43]): 169 µmol/kg | ED50 (Mus musculus [44]): 77.2 µmol/kg | ED50 (Mus musculus [45]): 17.3 nmol | ED50 (Mus musculus [46]): 11.3 µmol/kg | ED50 (Rattus norvegicus [21]; Rattus norvegicus, read-out: ED50): 5.8 µmol/kg | ED50 (Mus musculus [47]): 8.7 nmol | ED50 (Mus musculus [48]): 12.2 µmol/kg

CC[C@@H]1CN2CCc3c([nH]c4cccc(OC)c34)[C@@H]2C[C@@H]1/C(=C\OC)C(=O)OC
IC50 [49]: > 10000 nM | ED50 (Mus musculus [27]): 2.1 mg/kg | EC50 [50]: 8500 nM | Ki [51]: > 10000 nM
